# Assay results as given in US7985455B2, “Polymerizable liquid crystal compound, liquid crystal composition, and polymer” (JNC Corporation, priority 2007, dated 2011).
# Experiment: Solubility in PGMEA: deposition of crystals from a PGMEA solution allowed to stand at room temperature over night
# Assay type: physicochemical
# Settings: 30% by weight PGMEA solution, room temperature (20° C.) over night
# Description: The compound (1-8) was dissolved in PGMEA to prepare a 20% by weight PGMEA solution.
# The compound (1-19) was dissolved in PGMEA to prepare a 20% by weight PGMEA solution.
# The compound (1-42) was dissolved in PGMEA to prepare a 30% by weight PGMEA solution.
# The compound (1-52) was dissolved in PGMEA to prepare a 30% by weight PGMEA solution.
# The compound (M1-3) was dissolved in PGMEA to prepare a 10% by weight PGMEA solution. […] It is understood from the comparison between the result and Example 1 that the compound of the invention having an oxycarbonyloxy bonding group instead of an ether bond is excellent in solubility in PGMEA. Furthermore, it is understood from the comparison between Example 5 and Example 6 that the solubility in PGMEA is further enhanced by introducing an ether structure (—O—) to the alkylene in the side chain.
smiles,measurement,value
C=CC(=O)OCCOCCOC(=O)Oc1ccc(C(=O)Oc2ccc3c(c2)C(C)c2cc(OC(=O)c4ccc(OC(=O)OCCOCCOC(=O)C=C)cc4)ccc2-3)cc1 [Compound 1-42],deposition of crystals from PGMEA solution,no deposition of crystals
